Results reported in publication PMC11671585, “Deciphering the molecular basis of lipoprotein recognition and transport by LolCDE” (Signal Transduction and Targeted Therapy, 2024).

Molecular target: T1, LolCDE (LolCD^E171QE) (Escherichia coli, UniProt P75957, E171Q)
T1 construct: gene lolD; full complex LolC, LolD dimer, LolE; 8xHis tag at C terminus of LolD; expressed in E. coli C43 (DE3); reconstituted in MSP1D1 nanodiscs with E. coli polar lipids; with Lipoprotein-releasing system transmembrane protein LolC; Lipoprotein-releasing system transmembrane protein LolE
T1 sequence (P75957 whole entry E171Q): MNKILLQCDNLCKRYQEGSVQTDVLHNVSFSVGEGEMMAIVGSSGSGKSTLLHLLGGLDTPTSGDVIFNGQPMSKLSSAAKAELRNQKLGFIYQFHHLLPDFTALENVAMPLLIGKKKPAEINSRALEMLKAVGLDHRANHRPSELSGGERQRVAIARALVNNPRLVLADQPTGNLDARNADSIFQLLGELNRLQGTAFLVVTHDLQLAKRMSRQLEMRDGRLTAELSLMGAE
T1 sequence (P75958 2-414, further chain): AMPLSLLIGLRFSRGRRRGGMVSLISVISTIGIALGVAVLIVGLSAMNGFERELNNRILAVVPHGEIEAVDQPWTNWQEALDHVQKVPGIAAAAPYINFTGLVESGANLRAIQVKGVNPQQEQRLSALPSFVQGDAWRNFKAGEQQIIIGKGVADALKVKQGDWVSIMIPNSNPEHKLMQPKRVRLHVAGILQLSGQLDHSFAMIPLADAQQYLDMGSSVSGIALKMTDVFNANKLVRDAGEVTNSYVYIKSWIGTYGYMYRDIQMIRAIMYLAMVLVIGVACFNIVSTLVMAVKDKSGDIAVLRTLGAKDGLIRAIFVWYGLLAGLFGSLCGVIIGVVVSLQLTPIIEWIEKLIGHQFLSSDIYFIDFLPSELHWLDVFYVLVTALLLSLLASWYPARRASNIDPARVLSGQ
T1 sequence (P0ADC3 whole entry, further chain): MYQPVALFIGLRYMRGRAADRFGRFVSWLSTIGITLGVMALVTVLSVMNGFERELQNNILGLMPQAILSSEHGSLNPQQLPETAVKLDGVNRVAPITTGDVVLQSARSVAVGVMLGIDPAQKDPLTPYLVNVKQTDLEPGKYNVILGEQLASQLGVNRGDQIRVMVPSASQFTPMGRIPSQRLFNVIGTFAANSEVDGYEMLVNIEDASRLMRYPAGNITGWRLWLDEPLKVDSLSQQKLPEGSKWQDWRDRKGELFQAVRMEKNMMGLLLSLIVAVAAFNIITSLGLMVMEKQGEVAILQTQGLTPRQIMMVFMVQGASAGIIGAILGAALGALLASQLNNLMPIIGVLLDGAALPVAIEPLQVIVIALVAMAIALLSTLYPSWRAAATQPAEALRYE
Assay: cryo-EM structure, […] Å, nanodiscs
Format: binding
Conditions: endogenous ATP with Mg2+, no nucleotide added; both catalytic sites of the LolD dimer; catalytically inactive mutant; pH 7.8

For `Nc1ncnc2c1ncn2[C@@H]1O[C@H](COP(=O)(O)OP(=O)(O)OP(=O)(O)O)[C@@H](O)[C@H]1O` [ATP], the “cryo-EM structure, 3.2 Å, nanodiscs” value was “additional cryo-EM densities were observed in the catalytic pockets of LolD, which were identified as ATP”.
